Source: paper PMC2783803 (Journal of medicinal chemistry, 2009)

What was measured:
[1] = tested on: sweet and umami (MSG) taste; assay: Psychophysical self-experimentation, taste inhibition in vivo; set-up: species or system human; conditions: self-experimentation by one author; data not shown
PPAR-alpha = conditions: read-out: EC50 for activating PPAR-alpha; cited from earlier work
[2] = tested on: mouse sweet receptor (mT1R2+mT1R3); assay: Heterologous calcium mobilization assay, mouse sweet receptor; format: cell-based; conditions: activated by 2.5mM sucralose; inhibitor at ~5-times IC50
human T1R2+T1R3 receptor = molecular target: T1, human T1R2+T1R3 receptor (Homo sapiens, UniProt Q7RTX0); assay: Heterologous calcium mobilization assay, human sweet receptor in HEK293 cells; format: cell-based
T1 sequence (Q7RTX0 21-852): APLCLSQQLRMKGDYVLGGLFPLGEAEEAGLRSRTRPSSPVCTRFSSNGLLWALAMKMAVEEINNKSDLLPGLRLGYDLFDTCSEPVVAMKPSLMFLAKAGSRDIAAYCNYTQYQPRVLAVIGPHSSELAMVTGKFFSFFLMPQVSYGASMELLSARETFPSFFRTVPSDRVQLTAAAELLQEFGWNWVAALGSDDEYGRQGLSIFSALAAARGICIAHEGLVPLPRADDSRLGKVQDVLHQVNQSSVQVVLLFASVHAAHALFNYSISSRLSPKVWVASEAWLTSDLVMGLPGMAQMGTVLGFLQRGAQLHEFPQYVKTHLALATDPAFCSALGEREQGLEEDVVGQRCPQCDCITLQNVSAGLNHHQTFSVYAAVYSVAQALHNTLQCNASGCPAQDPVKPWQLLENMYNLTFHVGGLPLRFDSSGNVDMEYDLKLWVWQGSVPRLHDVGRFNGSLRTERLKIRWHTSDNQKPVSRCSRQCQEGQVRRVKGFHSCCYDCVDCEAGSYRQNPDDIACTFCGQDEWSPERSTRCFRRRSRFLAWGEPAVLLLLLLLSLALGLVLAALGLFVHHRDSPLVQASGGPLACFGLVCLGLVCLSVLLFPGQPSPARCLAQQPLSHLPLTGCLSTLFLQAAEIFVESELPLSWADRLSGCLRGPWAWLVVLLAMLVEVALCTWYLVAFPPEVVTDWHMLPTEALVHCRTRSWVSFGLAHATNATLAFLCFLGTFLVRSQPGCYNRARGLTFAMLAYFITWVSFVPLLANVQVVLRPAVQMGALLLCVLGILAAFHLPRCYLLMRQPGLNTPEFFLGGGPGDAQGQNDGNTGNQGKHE
T1 sequence (Q8TE23 20-839 partner): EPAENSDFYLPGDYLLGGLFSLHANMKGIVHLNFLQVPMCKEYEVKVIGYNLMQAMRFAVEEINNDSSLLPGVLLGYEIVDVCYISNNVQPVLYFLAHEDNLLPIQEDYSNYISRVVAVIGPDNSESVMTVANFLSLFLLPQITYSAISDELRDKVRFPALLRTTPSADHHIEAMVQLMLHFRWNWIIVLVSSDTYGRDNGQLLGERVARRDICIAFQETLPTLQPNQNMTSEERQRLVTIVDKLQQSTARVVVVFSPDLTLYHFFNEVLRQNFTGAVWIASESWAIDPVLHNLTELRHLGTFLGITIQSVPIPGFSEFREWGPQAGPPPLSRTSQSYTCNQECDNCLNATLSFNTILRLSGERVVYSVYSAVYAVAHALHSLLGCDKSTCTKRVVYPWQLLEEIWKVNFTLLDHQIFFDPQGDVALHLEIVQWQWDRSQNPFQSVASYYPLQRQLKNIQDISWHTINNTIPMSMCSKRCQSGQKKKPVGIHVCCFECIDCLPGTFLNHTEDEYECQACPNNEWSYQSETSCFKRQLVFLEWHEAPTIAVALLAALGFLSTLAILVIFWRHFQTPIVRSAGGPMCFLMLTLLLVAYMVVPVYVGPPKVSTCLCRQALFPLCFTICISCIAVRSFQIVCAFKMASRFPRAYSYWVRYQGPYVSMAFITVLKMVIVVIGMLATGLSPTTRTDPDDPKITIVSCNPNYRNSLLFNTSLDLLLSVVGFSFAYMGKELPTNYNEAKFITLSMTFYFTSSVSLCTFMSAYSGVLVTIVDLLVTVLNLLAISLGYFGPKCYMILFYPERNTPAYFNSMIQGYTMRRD

Which “inhibition of sweet taste in vivo” value [1] does the source give for `CC(C)(Oc1ccc(Cl)cc1)C(=O)O` [Clofibric acid, 2-(4-chlorophenoxy)-2-methylpropanoic acid] here?
The value was “potently inhibited”.

What about the “inhibition of umami (MSG) taste in vivo” value [1] of the same compound?
The value was “potently inhibited”.

And the EC50 (PPAR-alpha)?
The EC50 was 50 to 55 µM.

Which “effect on the mouse sweet receptor” value [2] does the source give for `COc1ccc(OC(C)C(=O)O)cc1` (centres unmarked) [Lactisole, 2-(4-methoxyphenoxy) propanoic acid] here?
Its value is “no effect”.

With `O=C(O)COc1ccc(Cl)cc1Cl` [2,4D, (2,4-dichlorophenoxy)acetic acid] as the compound, how does the IC50 (human T1R2+T1R3 receptor) read?
The IC50 was 70 µM.
